Test results taken from patent publication US9375013B2, “Herbicidal composition” (ISHIHARA SANGYO KAISHA, LTD., priority 2013, dated 2016).

What was measured:
Type in all cases: in vivo
[1] = system: barnyardgrass (Echinochloa crus-galli L); test: Test Example 9: pot soil treatment, growth inhibition of barnyardgrass; settings: dose 30 g/ha, 21st day after treatment, read-out: Growth inhibition rate (%) of barnyardgrass, Measured value
Source text: (§1) On the 14th day after treatment, the state of growth of the summergrass was visually observed to determine the growth inhibition rate in accordance with the following evaluation standard. The growth inhibition rate (%) (measured value) and the growth inhibition rate (%) (calculated value) calculated by the Colby's formula are shown in Table 1. Growth inhibition rate (%)=0 (equivalent to the non-treated area) to 100 (complete kill) Upland field soil was put into a 1/160,000 ha pot, and seeds of barnyardgrass (Echinochloa crus-galli L) were sown. On the next day, predetermined amounts of flazasulfuron and hexazinone were diluted with water (in an amount corresponding to 300 L/ha), and applied for soil treatment by a small sprayer. On the 21st day after treatment, the state of growth of the barnyardgrass was visually observed to determine the growth inhibition rate. The growth inhibition rate (%) (measured value) and the growth inhibition rate (%) calculated in the same manner as in Test Example 1 are shown in Table 9.

[2] = system: common lespedeza (Lespedeza striata (Thunb.) Hook. et Arn.); test: Test Example 12: pot soil treatment, growth inhibition of common lespedeza; settings: Kummerowia striata, dose 30 g/ha, 21st day after treatment, read-out: Growth inhibition rate (%) of common lespedeza, Measured value
Source text: as §1, with “common lespedeza (Lespedeza striata (Thunb.) Hook. et Arn.)” for “barnyardgrass (Echinochloa crus-galli L)”, “imazapic” for “hexazinone”, “common lespedeza” for “barnyardgrass”, “12.” for “9.”

[3] = system: ivy-leaved morningglory (Ipomoea hederacea (L.) Jacq.); test: Test Example 2: pot soil treatment, growth inhibition of ivy-leaved morningglory; settings: 22nd day after treatment, read-out: Growth inhibition rate (%) of ivy-leaved morningglory, Measured value
Source text: as §1, with “ivy-leaved morningglory (Ipomoea hederacea (L.) Jacq.)” for “barnyardgrass (Echinochloa crus-galli L)”, “22nd” for “21st”, “ivy-leaved morningglory” for “barnyardgrass”, “2.” for “9.”

[4] = system: wild oat (Avena fatua L.); test: Test Example 3: pot soil treatment, growth inhibition of wild oat; settings: 22nd day after treatment, read-out: Growth inhibition rate (%) of wild oat, Measured value
Source text: as §1, with “wild oat (Avena fatua L.)” for “barnyardgrass (Echinochloa crus-galli L)”, “flazasulfuron, mesotrione” for “flazasulfuron”, “imazapic” for “hexazinone”, “22nd” for “21st”, “wild oat” for “barnyardgrass”, “3.” for “9.”

[5] = system: guinea grass (Panicum maximum Jacq.); test: Test Example 4: pot soil treatment, growth inhibition of guinea grass; settings: Megathyrsus maximus, dose 10 g/ha, 22nd day after treatment, read-out: Growth inhibition rate (%) of guinea grass, Measured value
Source text: as §1, with “guinea grass (Panicum maximum Jacq.)” for “barnyardgrass (Echinochloa crus-galli L)”, “mesotrione” for “hexazinone”, “22nd” for “21st”, “guinea grass” for “barnyardgrass”, “4.” for “9.”

[6] = system: persian speedwell (Veronica persica Poiret.); test: Test Example 10: pot soil treatment, growth inhibition of persian speedwell; settings: dose 30 g/ha, 21st day after treatment, read-out: Growth inhibition rate (%) of persian speedwell, Measured value
[7] = system: persian speedwell (Veronica persica Poir.); test: Test Example 8: pot soil treatment, growth inhibition of persian speedwell; settings: 21st day after treatment, read-out: Growth inhibition rate (%) of persian speedwell, Measured value
[8] = system: summergrass (Digitaria ciliaris (Retz.) Koeler); test: Test Example 1: pot soil treatment, growth inhibition of summergrass; settings: dose 10 g/ha, 14th day after treatment, read-out: Growth inhibition rate (%) of summergrass, Measured value
Description: Upland field soil was put into a 1/160,000 ha pot, and seeds of summergrass (Digitaria ciliaris (Retz.) Koeler) were sown. On the next day, predetermined amounts of flazasulfuron and imazapic were diluted with water (in an amount corresponding to 300 L/ha), and applied for soil treatment by a small sprayer. On the 14th day after treatment, the state of growth of the summergrass was visually observed to determine the growth inhibition rate in accordance with the following evaluation standard. The growth inhibition rate (%) (measured value) and the growth inhibition rate (%) (calculated value) calculated by the Colby's formula are shown in Table 1. Growth inhibition rate (%)=0 (equivalent to the non-treated area) to 100 (complete kill)

SMILES: COc1cc(OC)nc(NC(=O)NS(=O)(=O)c2ncccc2C(F)(F)F)n1 [Flazasulfuron, flazasulfuron]
- inhibition at 30 g/ha [1]: 90%
- inhibition at 30 g/ha [2]: 90%
- inhibition at 10 g/ha ([3]; dose 10 g/ha): 0%
- inhibition at 30 g/ha ([3]; dose 30 g/ha): 0%
- inhibition at 50 g/ha ([3]; dose 50 g/ha): 40%
- inhibition at 30 g/ha ([4]; dose 30 g/ha): 40%
- inhibition at 50 g/ha ([4]; dose 50 g/ha): 0%
- inhibition at 10 g/ha [5]: 0%
- inhibition at 30 g/ha [6]: 15%
- inhibition at 50 g/ha [7]: 20%
- inhibition at 10 g/ha [8]: 15%
